Test results taken from patent US4489091A, “Antilipemic and anti-inflammatory compositions containing sulfonate derivatives” (Taiho Pharmaceutical Company Limited, priority 1980, dated 1984).
Read-outs that look alike come from different tables or passages of the source.

What was measured:
triglycerides = test: Antilipemic effect: percent triglycerides inhibition in plasma of rats given an olive oil-cholesterol mixture; format: in vivo, male Wistar rats; conditions: for inhibition in vivo at 100 mg/kg: read-out: Anti-lipemic effect, TG (percent triglycerides inhibition); for inhibition in vivo at 200 mg/kg: oral 200 mg/kg (asterisked values), read-out: Anti-lipemic effect, TG (percent triglycerides inhibition), asterisked
Procedure, shortened: (§1)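 Male Wistar rats, seven weeks old, 200 to 220 g, 5 per group, dosed orally at 100 or 200 mg/kg in olive oil-cholesterol mixture (15% cholesterol) at 10 ml/kg. Plasma triglycerides measured at 2 hours, total cholesterol at 8 hours, by enzymatic kits; percent inhibition calculated relative to vehicle control and untreated normal groups.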

chymotripsin = chymotripsin (Bos taurus, UniProt P00766); test: Chymotripsin inhibiting activity; format: biochemical; conditions: 0.5 h; compound 1×10^-4 mole, ATEE substrate, pH 8.0, 37° C.; read-out: Percent chymotripsin inhibition
Method: Chymotripsin (0.1 unit) serving as an enzyme solution is added to a specified quantity of buffer solution containing 0.1 mole of trishydrochloric acid (pH 8.0). To the mixture is further added a 50% ethanol solution of the compound of the invention so that the resulting mixture contains the compound in a concentration of 1×10^-4 mole. The mixture is reacted at 37° C. for 20 minutes.
On completion of the reaction, 10 micromoles of N-acetyl-L-thyrosine ethyl ester (ATEE) serving as a substrate is added to the mixture, and the resulting mixture is reacted at 37° C. for 30 minutes.
After the completion of the reaction, the amount of remaining ATEE is determined by the same hydroxamic acid method as above. The percent chymotripsin inhibition is given by [formula] wherein A is the amount of hydrolyzed esters in the reaction system not containing the compound of the invention, and B is the amount of hydrolyzed esters in the reaction system containing the present compound.

cholesterol = test: Antilipemic effect: percent total cholesterol inhibition in plasma of rats given an olive oil-cholesterol mixture; format: in vivo, male Wistar rats; conditions: for inhibition in vivo at 100 mg/kg: read-out: Anti-lipemic effect, CS (percent cholesterol inhibition)
Procedure, shortened: as §1

esterase = test: Esterase inhibiting activity; format: biochemical; conditions: rat liver microsome esterase, methyl butyrate substrate, pH 8.0, 37° C., 60 minutes; read-out: IC50 for esterases
Method: A 10 micromole quantity of methyl butyrate in a 50% ethanol solution is added as a substrate to a specified amount of buffer solution containing 0.1 mole of trishydrochloric acid (pH 8.0). To the mixture is further added a 50% ethanol solution of the compound of the invention, immediately followed by addition of an esterase solution prepared from a purified microsome fraction of the liver of a rat (adjusted to hydrolyze 9 micromoles of methyl butyrate at 37° C. in one hour) as an enzyme solution. The mixture is reacted at 37° C. for 60 minutes.
After the reaction, alkaline hydroxylamine is added to the mixture to form a hydroxamic acid derivative of methyl butyrate, and a ferric salt is added to the derivative. The resulting red color is colorimetrically determined (at a wavelength of 540 nm) to determine the amount of remaining methyl butyrate. The esterase inhibiting ratios of the present compound at least at three concentrations are plotted as ordinate, and the logarithms of the concentrations as abscissa to obtain a line, which gives the 50% inhibition concentration (IC50).

Acute toxicity = conditions: rat, in vivo
Excerpt: Six-week-old male Wistar rats weighing 180 to 200 g are used, 5 rats in each group. Each compound of the invention is suspended in a 30% aqueous solution of polyethylene glycol 6000 and orally given to the rat at the dosage shown in Table 2. The animals are checked for poisoning, body weight and survival to determine the LD50 value.

[1] = oral 100 mg/kg, plasma 2 hours after dosing, Wistar rat
[2] = oral 100 mg/kg, plasma 8 hours after dosing, Wistar rat
[3] = oral, six-week-old male Wistar rats, suspended in 30% aqueous polyethylene glycol 6000, read-out: LD50
[4] = plasma 2 hours after dosing, Wistar rat

CCCCCCCCC(=O)COS(=O)(=O)c1c(C)cc(C)cc1C [Compound 78]
inhibition in vivo at 100 mg/kg (triglycerides; [1]): 56% | inhibition at 100 µM (chymotripsin): 72% | inhibition in vivo at 100 mg/kg (cholesterol; [2]): 61% | IC50 (esterase): 0.63 nM | LD50 (Acute toxicity; po): > 4000 mg/kg

CCCCC(CCCC)C(=O)COS(=O)(=O)c1ccc(C)cc1 [Compound 129]
inhibition in vivo at 100 mg/kg (triglycerides; [1]): 66% | inhibition at 100 µM (chymotripsin): 30% | inhibition in vivo at 100 mg/kg (cholesterol; [2]): 45% | IC50 (esterase): 7000 nM | LD50 (Acute toxicity; po): > 3000 mg/kg

CCCC(C)CC(=O)COS(=O)(=O)c1c(C)cc(C)cc1C (centres unmarked) [Compound 158]
inhibition in vivo at 100 mg/kg (triglycerides; [1]): 74% | inhibition at 100 µM (chymotripsin): 17% | inhibition in vivo at 100 mg/kg (cholesterol; [2]): 70% | IC50 (esterase): 400 nM | LD50 (Acute toxicity; po): > 4000 mg/kg

CCCC(=O)COS(=O)(=O)c1cc(C)ccc1C [Compound 111]
inhibition in vivo at 100 mg/kg (triglycerides; [1]): 73% | inhibition at 100 µM (chymotripsin): 4% | inhibition in vivo at 100 mg/kg (cholesterol; [2]): 51% | IC50 (esterase): 280 nM | LD50 (Acute toxicity; po): > 2000 mg/kg

CCCCCCC(=O)COS(=O)(=O)c1ccc(C)cc1 [Compound 19]
inhibition in vivo at 100 mg/kg (triglycerides; [1]): 78% | inhibition at 100 µM (chymotripsin): 100% | inhibition in vivo at 100 mg/kg (cholesterol; [2]): 41% | IC50 (esterase): 3400 nM | LD50 (Acute toxicity; po): > 3000 mg/kg

CCCCCC(C)C(=O)COS(=O)(=O)c1c(C)cc(C)cc1C (centres unmarked) [Compound 162]
inhibition in vivo at 100 mg/kg (triglycerides; [1]): 75% | inhibition at 100 µM (chymotripsin): 32% | inhibition in vivo at 100 mg/kg (cholesterol; [2]): 77% | IC50 (esterase): 2000 nM | LD50 (Acute toxicity; po): > 4000 mg/kg

CCCC(=O)COS(=O)(=O)c1ccc2ccccc2c1 [Compound 5]
inhibition in vivo at 100 mg/kg (triglycerides; [1]): 86% | inhibition at 100 µM (chymotripsin): 17% | inhibition in vivo at 100 mg/kg (cholesterol; [2]): 73% | IC50 (esterase): 3600 nM | LD50 (Acute toxicity; po): > 2500 mg/kg

CCOc1ccc(S(=O)(=O)OCC(=O)CCC(C)C)cc1 [Compound 138]
inhibition in vivo at 100 mg/kg (triglycerides; [1]): 95% | inhibition at 100 µM (chymotripsin): 67% | inhibition in vivo at 100 mg/kg (cholesterol; [2]): 90% | IC50 (esterase): 4200 nM | LD50 (Acute toxicity; po): > 2000 mg/kg

CCCCCCC(=O)COS(=O)(=O)c1ccccc1C [Compound 31]
inhibition in vivo at 100 mg/kg (triglycerides; [1]): 61% | inhibition at 100 µM (chymotripsin): 100% | inhibition in vivo at 100 mg/kg (cholesterol; [2]): 31% | IC50 (esterase): 17 nM | LD50 (Acute toxicity; po): > 2000 mg/kg

CCOc1ccc(S(=O)(=O)OCC(=O)CC(CC)CC)cc1 [Compound 137]
inhibition in vivo at 100 mg/kg (triglycerides; [1]): 81% | inhibition at 100 µM (chymotripsin): 14% | inhibition in vivo at 100 mg/kg (cholesterol; [2]): 72% | IC50 (esterase): 10000 nM | LD50 (Acute toxicity; po): > 4000 mg/kg

CCCCC(CC)C(=O)COS(=O)(=O)c1ccc(OCC)cc1 (centres unmarked) [Compound 50]
inhibition in vivo at 100 mg/kg (triglycerides; [1]): 80% | inhibition at 100 µM (chymotripsin): 31% | inhibition in vivo at 100 mg/kg (cholesterol; [2]): 94% | IC50 (esterase): 21000 nM | LD50 (Acute toxicity; po): > 4500 mg/kg

CCCCCC(=O)COS(=O)(=O)c1ccc(C)cc1 [Compound 18]
inhibition in vivo at 100 mg/kg (triglycerides; [1]): 94% | inhibition at 100 µM (chymotripsin): 77% | inhibition in vivo at 100 mg/kg (cholesterol; [2]): 40% | IC50 (esterase): 1600 nM | LD50 (Acute toxicity; po): > 3000 mg/kg

CCCC(=O)COS(=O)(=O)c1c(C)cc(C)cc1C [Compound 73, 2-oxopentyl-2,4,6-trimethylbenzenesulfonate]
inhibition in vivo at 100 mg/kg (triglycerides; [1]): 92% | inhibition at 100 µM (chymotripsin): 13% | inhibition in vivo at 100 mg/kg (cholesterol; [2]): 90% | IC50 (esterase): 1000 nM | LD50 (Acute toxicity; [3]): > 3000 mg/kg

CCCCC(=O)COS(=O)(=O)c1c(C)cc(C)c(C)c1C [Compound 96]
inhibition in vivo at 100 mg/kg (triglycerides; [1]): 68% | inhibition at 100 µM (chymotripsin): 12% | inhibition in vivo at 100 mg/kg (cholesterol; [2]): 71% | IC50 (esterase): 0.16 nM | LD50 (Acute toxicity; po): > 3000 mg/kg

CCOc1ccc(S(=O)(=O)OCC(=O)CCCC(C)C)cc1 [Compound 145]
inhibition in vivo at 100 mg/kg (triglycerides; [1]): 61% | inhibition at 100 µM (chymotripsin): 87% | inhibition in vivo at 100 mg/kg (cholesterol; [2]): 62% | IC50 (esterase): 3300 nM | LD50 (Acute toxicity; po): > 3000 mg/kg

C=CCCC(=O)COS(=O)(=O)c1ccccc1 [Compound 14]
inhibition in vivo at 100 mg/kg (triglycerides; [1]): 92% | inhibition at 100 µM (chymotripsin): 25% | inhibition in vivo at 100 mg/kg (cholesterol; [2]): 62% | IC50 (esterase): 520 nM | LD50 (Acute toxicity; po): > 2000 mg/kg

CCCCCCCC(=O)COS(=O)(=O)c1ccc(OCC)cc1 [Compound 47]
inhibition in vivo at 200 mg/kg (triglycerides; [4]): 82% | inhibition at 100 µM (chymotripsin): 67% | inhibition in vivo at 100 mg/kg (cholesterol; [2]): 60% | IC50 (esterase): 590 nM | LD50 (Acute toxicity; po): > 4000 mg/kg

CCCCCCCCC(=O)COS(=O)(=O)c1c(C)cc(C)c(C)c1C [Compound 98]
inhibition in vivo at 200 mg/kg (triglycerides; [4]): 70% | inhibition at 100 µM (chymotripsin): 26% | Anti-lipemic effect, CS (percent cholesterol inhibition), asterisked (cholesterol; oral 200 mg/kg (asterisked values), plasma 8 hours after dosing, Wistar rat): 71% | IC50 (esterase): 0.027 nM | LD50 (Acute toxicity; po): > 4000 mg/kg

CCCC(CCC)C(=O)COS(=O)(=O)c1ccc(OCC)cc1 [Compound 135]
inhibition in vivo at 100 mg/kg (triglycerides; [1]): 91% | inhibition at 100 µM (chymotripsin): 10% | inhibition in vivo at 100 mg/kg (cholesterol; [2]): 92% | IC50 (esterase): 56000 nM | LD50 (Acute toxicity; po): > 4500 mg/kg

CCCC(CC)C(=O)COS(=O)(=O)c1c(C)cc(C)cc1C (centres unmarked) [Compound 151]
inhibition in vivo at 100 mg/kg (triglycerides; [1]): 83% | inhibition at 100 µM (chymotripsin): 8% | inhibition in vivo at 100 mg/kg (cholesterol; [2]): 77% | IC50 (esterase): 32000 nM | LD50 (Acute toxicity; po): > 3000 mg/kg

CCCC(=O)COS(=O)(=O)c1cc(C)c(C)cc1C [Compound 116]
inhibition in vivo at 100 mg/kg (triglycerides; [1]): 90% | inhibition at 100 µM (chymotripsin): 0% | inhibition in vivo at 100 mg/kg (cholesterol; [2]): 82% | IC50 (esterase): 1300 nM | LD50 (Acute toxicity; po): > 2000 mg/kg

CCCCCCCCCC(=O)COS(=O)(=O)c1ccccc1 [Compound 10]
inhibition in vivo at 100 mg/kg (triglycerides; Rattus norvegicus, po, 2 h): 80% | inhibition at 100 µM (chymotripsin): 14% | inhibition in vivo at 100 mg/kg (cholesterol; Rattus norvegicus, po, 8 h): 61% | IC50 (esterase): 7.6 nM | LD50 (Acute toxicity; [3]): > 3000 mg/kg

CCCCCC(C)C(=O)COS(=O)(=O)c1ccc(C)cc1 (centres unmarked) [Compound 130]
inhibition in vivo at 100 mg/kg (triglycerides; [1]): 72% | inhibition at 100 µM (chymotripsin): 52% | inhibition in vivo at 100 mg/kg (cholesterol; [2]): 51% | IC50 (esterase): 4000 nM | LD50 (Acute toxicity; po): > 3000 mg/kg

CCCCCC(=O)COS(=O)(=O)c1ccccc1 [Compound 8]
inhibition in vivo at 100 mg/kg (triglycerides; [1]): 87% | inhibition at 100 µM (chymotripsin): 100% | inhibition in vivo at 100 mg/kg (cholesterol; [2]): 60% | IC50 (esterase): 72 nM | LD50 (Acute toxicity; po): > 2000 mg/kg

C=CCCC(=O)COS(=O)(=O)c1c(C)cc(C)cc1C [Compound 86]
inhibition in vivo at 100 mg/kg (triglycerides; [1]): 79% | inhibition at 100 µM (chymotripsin): 14% | inhibition in vivo at 100 mg/kg (cholesterol; [2]): 66% | IC50 (esterase): 120 nM | LD50 (Acute toxicity; po): > 3000 mg/kg
